Measured values published in US20050148495A1, “Methods and materials including for treating acne” (priority 2003, published 2005).
Non-standard residues stand in square brackets, D forms with d. Residues, ends and D or L forms follow the SMILES beside them. d1Nal = N[C@H](Cc1cccc2ccccc12)C(=O)O

Columns and labels:
[1] = Stability in aqueous solution as indicated by biological activity; type: physicochemical; conditions: 4° C.
Experimental: In additional studies, a variety of formulations of XMP.629 were tested for stability under various temperatures, such as 25° C., 40° C., and 50° C., and at various time points, such as 0.5, 1, and 2 months.

CHO cells = assay: CHO chromosomal aberration test; type: cell-based, Chinese Hamster; conditions: with and without metabolic activation
Experimental: XMP.629 was next evaluated for activity to induce chromosomal aberrations in cultured CHO cells with and without an exogenous metabolic activation system. […] The assay design for these chromosomal aberration studies was based on OECD Guideline 473, updated and adopted Jul. 21, 1997. XMP.629 was provided as a 20.0 mg/mL stock in 10 mM sodium acetate buffer (pH 6). This solution and its dilutions prepared in cell culture grade water were dosed at 10% vol/vol (100 pUL/mL). The vehicle control cultures were treated with 100 μL/mL of cell culture grade water. In the initial assay, the treatment period was for 3.0 hours with and without metabolic activation at various concentrations of XMP.629 (30, 60, 120, 240, 480, 686, 980, 1400 and 2000 μg/mL) and cultures were harvested 20.0 hours from the initiation of treatment. Those cultures that were treated with 30, 60 and 120 pg/mL were analyzed for chromosomal aberrations. No significant increase in cells with chromosomal aberrations, polyploidy or endoreduplication was observed. In a confirmatory assay that included lower doses, the treatment period was 20 hours without metabolic activation (3.75, 7.5,15, 30, 60, 90, 120, 160, 200 and 240 μg/mL) and 3 hours with metabolic activation (15, 30, 60, 90, 120, 160, 200, 240, 300 and 360 μg/mL). […]

[2] = tested on: conscious telemetered cynomolgus monkeys; assay: Cardiovascular safety pharmacology test, intravenous infusion, telemetry; type: in vivo, cynomolgus monkey
Experimental: This safety pharmacology test was performed to assess the possible cardiovascular effects of XMP.629 when administered via intravenous infusion. The test was an acute experiment to identify single-dose-induced side-effects as indicated, for example, in the Guideline for General Pharmacology Studies (Japan Ministry of Health and Welfare PAB/NND Notification No. 4, Jan. 29, 1995, the disclosure of which is incorporated herein by reference).
A telemetry device/transmitter (Data Sciences, St. Paul, Minn.) was surgically implanted in the subcutaneous pocket over the mid-abdominal region into the test monkeys. The blood pressure catheter of the telemetry device was run sub-cutaneously to the left groin region and inserted into the left femoral artery, with the catheter tip placed into the abdominal aorta. In addition, electrocardiogram leads were sub-cutaneously tunneled to the appropriate anatomical regions (i.e. negative lead paced at the base of the right side of the neck and the positive lead placed within the 5th intercostals space on the left side of the thoracic cage, near the sternum).
Intravenous administration of XMP.629 was given to conscious cynomolgus primates (four males) via telemetry systems in a series of 4 acute experiments, in which escalating doses were administered over four days, with a 3 to 27-day washout period between doses. Doses were administered over a two-hour period, at a rate of 2 mL/kg/hr. The vehicle, 10 mM sodium acetate buffer, was administered on Day 0, and XMP.629 at dose levels of 5, 10, and 20 mg/kg/2 hrs on days 4, 7, and 34, respectively. The infused volume per dose was calculated using the most recent body weight measurements.
Viability checks were performed twice daily on the animals. Body weights were obtained from the animals on the day of surgery and one or two days prior to each dose. Cardiovascular assessments and body temperature measurements were collected radiotelemetrically using the implanted telemetry device/transmitter for one 24 hour period prior to the Day 0 dosing session at the same frequency/periods collected on the days of dosing. On each day of dosing, the effect of XMP.629 on various physiological parameters, such as blood pressure waveform, systolic pressure, diastolic pressure, mean pressure, ECG (axial lead) waveform, heart rate, body temperature, QA interval, P-R interval, QRS interval, QT interval, R—R interval, and QTC interval, was observed two hours before the dosing period, every five minutes for 120 minutes during each infusion period, and for 22 hours after termination of infusion (once every five minutes for one hour and then once every 30 minutes for the remaining 21 hours). […]

Question: Which “stable in aqueous solution as indicated by biological activity” value [1] does the source give for CC(C)C[C@@H](NC(=O)[C@H](N)CCCCN)C(=O)N[C@H](Cc1ccccc1)C(=O)N[C@H](CCCNC(=N)N)C(=O)N[C@H](Cc1cccc2ccccc12)C(=O)N[C@H](CCC(N)=O)C(=O)N[C@H](C)C(=O)N[C@H](CCCCN)C(=O)N[C@H](Cc1cccc2ccccc12)C(N)=O [XMP.629, NH2-lys-leu-phe-arg-(3-(1-naphthyl)-ala)-gln-ala-lys-(3-(1-naphthyl)-ala)-CONH2] (H-[dK][dL][dF][dR][d1Nal][dQ][dA][dK][d1Nal]-NH2) here?
Answer: The value was “greater than 6 months”.

Question: And the “chromosomal aberrations in CHO cells” value (CHO cells)?
Answer: The value was “negative”.

Question: What about the “Prolongation in prothrombin and activated partial thromboplastin times with decreases in fibrinogen” value ([2]; 20 mg/kg/2 hrs) of the same compound?
Answer: The value was 2 of 4 animals.

Question: What about the “heart rate, QA, P-R, QRS, and R-R intervals” value ([2]; 5, 10, or 20 mg/kg/2 hrs) of the same compound?
Answer: Its value is “no effects”.

Question: What about the cardiac findings ([2]; 10 or 20 mg/kg/2 hrs) of the same compound?
Answer: The cardiac findings was “ventricular extrasystoles and premature ventricular beats”.

Question: And the “intravenous infusion dose with no adverse, related-effect” value ([2]; cynomolgus monkey, in vivo, iv)?
Answer: The value was 5 mg/kg/2 hrs.

Question: And the “volume of the central compartment” value (0.05 mg/kg dose)?
Answer: Its value is 203.2 mL/kg.

Question: What about the “decrease of plasma concentrations within 4 hours of dosing” value (intravenous) of the same compound?
Answer: Its value is “approximately 100 fold”.
